Experimental data: US20080009418A1, “Selective Inhibitors” (Alchemia LTD., priority 2004, published 2008)

Legend:
[1] = molecular target: T1, Human neurokinin (NK1) (Homo sapiens, UniProt P25103); assay: Radioligand binding, human neurokinin NK1 membranes, filtration, [125I]-Substance P; settings: compound at 10 μM, [125I]-Substance P; for A8: inhibition of radioligand binding: human NK1 membranes
T1 construct: purchased Perkin Elmer Biosignal
In short: (§1)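 Percent inhibition of radioligand binding measured on recombinant human membranes: NK1 with [125I]-Substance P, KOP with [3H]-Diprenorphine. Incubation 1 h at room temperature, then harvest onto 0.3% PEI-soaked filters, cold Tris-HCl pH 7.4 washes and scintillation counting; non-specific binding from reference ligand wells.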

[2] = molecular target: T2, Human δ-opioid (DOP) (Homo sapiens, UniProt P41143); assay: Radioligand binding, human δ-opioid (DOP) membranes, FlashPlate, [3H]-Bremazocine; settings: compound at 10 μM, [3H]-Bremazocine; for A1: inhibition of radioligand binding: human DOP membranes
T2 construct: purchased Perkin Elmer Biosignal
In short: (§2)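 Cloned human receptor membranes were coated onto FlashPlate wells and incubated with radioligand and compound (added from a 0.5 mM DMSO daughter plate) for 1 hour at room temperature in the dark. Scintillation counting gave percent inhibition, with DMSO defining total and reference ligand defining non-specific binding.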

[3] = molecular target: T3, Human μ-opioid (MOP) (Homo sapiens, UniProt P35372); assay: Radioligand binding, human μ-opioid (MOP) membranes, FlashPlate, [3H]-Naloxone; settings: compound at 10 μM, [3H]-Naloxone; for A7: inhibition of radioligand binding: human MOP membranes
T3 construct: purchased Perkin Elmer Biosignal
In short: as §2

[4] = molecular target: T4, Human Melanocortin (MC3) (Homo sapiens, UniProt P41968); assay: Radioligand binding, human melanocortin MC3 membranes, FlashPlate, [125I]-NDP-αMSH; settings: compound at 10 μM, [125I]-NDP-αMSH; for A3: inhibition of radioligand binding: human MC3 membranes
T4 construct: purchased Perkin Elmer Biosignal
In short: as §2

[5] = molecular target: T5, Human Melanocortin (MC4) (Homo sapiens, UniProt P32245); assay: Radioligand binding, human melanocortin MC4 membranes, FlashPlate, [125I]-NDP-αMSH; settings: compound at 10 μM, [125I]-NDP-αMSH; for A4: inhibition of radioligand binding: human MC4 membranes
T5 construct: purchased Perkin Elmer Biosignal
In short: as §2

[6] = molecular target: T6, Human melanocortin (MC5) (Homo sapiens, UniProt P33032); assay: Radioligand binding, human melanocortin MC5 membranes, FlashPlate, [125I]-NDP-αMSH; settings: compound at 10 μM, [125I]-NDP-αMSH; for A5: inhibition of radioligand binding: human MC5 membranes
T6 construct: purchased Perkin Elmer Biosignal
In short: as §2

[7] = molecular target: T7, Human neuropeptide Y (NPY-Y1) (Homo sapiens, UniProt P25929); assay: Radioligand binding, human neuropeptide Y NPY-Y1 membranes, FlashPlate, [125I]-PYY; settings: compound at 10 μM, [125I]-PYY; for A9: inhibition of radioligand binding: human NPY-Y1 membranes
T7 construct: purchased Perkin Elmer Biosignal
T7 sequence (P25929 1-384): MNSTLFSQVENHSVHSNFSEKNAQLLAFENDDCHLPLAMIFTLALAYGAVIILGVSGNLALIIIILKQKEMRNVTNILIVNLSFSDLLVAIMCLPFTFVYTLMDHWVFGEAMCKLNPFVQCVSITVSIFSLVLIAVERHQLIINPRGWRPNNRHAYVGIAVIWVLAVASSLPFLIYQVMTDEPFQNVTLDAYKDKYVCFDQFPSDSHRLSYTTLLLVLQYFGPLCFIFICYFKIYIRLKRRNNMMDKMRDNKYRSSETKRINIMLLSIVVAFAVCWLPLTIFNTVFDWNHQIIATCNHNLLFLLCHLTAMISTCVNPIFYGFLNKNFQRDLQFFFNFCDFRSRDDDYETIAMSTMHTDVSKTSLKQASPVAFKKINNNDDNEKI
In short: as §2

[8] = molecular target: T8, Human opioid (ORL1) (Homo sapiens, UniProt P41146); assay: Radioligand binding, human opioid ORL1 membranes, FlashPlate, [125I]-Nociceptin; settings: compound at 10 μM, [125I]-Nociceptin; for A10: inhibition of radioligand binding: human ORL1 membranes
T8 construct: purchased Perkin Elmer Biosignal
In short: as §2

[9] = molecular target: T9, Human κ-Opioid (KOP) (Homo sapiens, UniProt P41145); assay: Radioligand binding, human κ-opioid (KOP) membranes, filtration, [3H]-Diprenorphine; settings: compound at 10 μM, [3H]-Diprenorphine; for A2: inhibition of radioligand binding: human KOP membranes
T9 construct: purchased Perkin Elmer Biosignal
In short: as §1

[10] = molecular target: T10, Human melanin-concentrating hormone (MCH1) (Homo sapiens, UniProt Q99705); assay: Radioligand binding, human melanin-concentrating hormone MCH1 membranes, FlashPlate, [125I]-S36057; settings: compound at 10 μM; for A6: inhibition of radioligand binding: [125I]-S36057, human MCH1 membranes
T10 construct: purchased Perkin Elmer Biosignal
In short: as §2

[11] = molecular target: T11, Mouse urotensin (mUR2) (Mus musculus, UniProt Q8VIH9); assay: Radioligand binding, mouse urotensin mUR2 membranes, FlashPlate, [125I]-Urotensin II; settings: compound at 10 μM, [125I]-Urotensin II; for A11: inhibition of radioligand binding: mouse mUR2 membranes
T11 construct: purchased Perkin Elmer Biosignal
T11 sequence (Q8VIH9 1-385): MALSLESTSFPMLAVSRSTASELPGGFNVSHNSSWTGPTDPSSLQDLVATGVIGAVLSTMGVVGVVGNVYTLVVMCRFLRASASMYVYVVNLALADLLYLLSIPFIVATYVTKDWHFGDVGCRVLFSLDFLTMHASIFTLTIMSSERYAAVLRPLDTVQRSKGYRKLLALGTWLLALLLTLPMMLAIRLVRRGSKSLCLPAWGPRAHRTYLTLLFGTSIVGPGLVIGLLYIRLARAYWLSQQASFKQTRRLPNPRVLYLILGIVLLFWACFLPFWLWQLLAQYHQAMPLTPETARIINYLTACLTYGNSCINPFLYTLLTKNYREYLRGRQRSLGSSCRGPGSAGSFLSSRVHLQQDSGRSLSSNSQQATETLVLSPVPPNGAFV
In short: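 Cloned mouse urotensin (mUR2) receptor membranes from Perkin Elmer Biosignal were immobilized in FlashPlate microplates using a proprietary coating. Each well got 19.5 μl buffer, then 0.5 μl of DMSO, reference ligand, or compound. Adding 5 μl of [125I]-Urotensin II, diluted to 5× final concentration in binding buffer, started binding. Plates were sealed with TopSeal-A and incubated 1 hour at room temperature in the dark. Wells were counted for 30 seconds each on a TopCount after a 60-second delay, and percentage inhibition was calculated.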

T1 sequence (P25103 whole entry): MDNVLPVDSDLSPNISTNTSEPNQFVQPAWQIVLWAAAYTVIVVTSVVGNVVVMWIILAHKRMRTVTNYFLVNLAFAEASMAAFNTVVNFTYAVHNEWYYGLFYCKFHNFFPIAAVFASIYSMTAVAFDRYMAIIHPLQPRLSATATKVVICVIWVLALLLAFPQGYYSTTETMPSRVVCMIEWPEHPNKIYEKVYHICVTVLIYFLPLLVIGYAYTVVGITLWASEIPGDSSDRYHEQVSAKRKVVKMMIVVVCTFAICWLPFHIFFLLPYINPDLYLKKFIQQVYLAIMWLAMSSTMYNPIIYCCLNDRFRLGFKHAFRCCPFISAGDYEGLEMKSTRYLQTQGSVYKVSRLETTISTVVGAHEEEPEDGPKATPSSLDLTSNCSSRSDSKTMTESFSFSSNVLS
T9 sequence (P41145 whole entry): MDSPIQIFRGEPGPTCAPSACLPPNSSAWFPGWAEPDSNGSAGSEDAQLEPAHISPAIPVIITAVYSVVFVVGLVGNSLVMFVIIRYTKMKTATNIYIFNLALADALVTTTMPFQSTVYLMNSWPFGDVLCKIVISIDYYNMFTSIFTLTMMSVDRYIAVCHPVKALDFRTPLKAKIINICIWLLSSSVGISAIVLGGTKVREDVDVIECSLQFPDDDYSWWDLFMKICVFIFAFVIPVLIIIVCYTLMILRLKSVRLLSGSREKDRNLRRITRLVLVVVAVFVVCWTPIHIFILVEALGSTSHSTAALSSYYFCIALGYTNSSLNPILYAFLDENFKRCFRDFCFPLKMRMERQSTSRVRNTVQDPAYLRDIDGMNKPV
T5 sequence (P32245 whole entry): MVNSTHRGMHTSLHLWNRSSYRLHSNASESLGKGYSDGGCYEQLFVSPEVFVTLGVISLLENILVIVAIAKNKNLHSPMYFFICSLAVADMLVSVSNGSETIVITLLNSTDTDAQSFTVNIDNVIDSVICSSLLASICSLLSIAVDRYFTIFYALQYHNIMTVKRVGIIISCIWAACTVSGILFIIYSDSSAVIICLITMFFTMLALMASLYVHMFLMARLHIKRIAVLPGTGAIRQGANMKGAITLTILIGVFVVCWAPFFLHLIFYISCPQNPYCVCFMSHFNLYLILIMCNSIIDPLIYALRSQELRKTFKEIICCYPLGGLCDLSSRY
T10 sequence (Q99705 whole entry): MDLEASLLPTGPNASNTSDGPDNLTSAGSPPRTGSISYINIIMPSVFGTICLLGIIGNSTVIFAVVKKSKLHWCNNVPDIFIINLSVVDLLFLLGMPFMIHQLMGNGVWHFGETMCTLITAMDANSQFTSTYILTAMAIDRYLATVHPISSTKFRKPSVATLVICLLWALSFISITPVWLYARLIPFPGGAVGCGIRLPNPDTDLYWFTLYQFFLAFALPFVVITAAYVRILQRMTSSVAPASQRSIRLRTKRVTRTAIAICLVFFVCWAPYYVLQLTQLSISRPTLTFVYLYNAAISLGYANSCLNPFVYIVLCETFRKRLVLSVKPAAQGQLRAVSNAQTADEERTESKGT
T4 sequence (P41968 whole entry): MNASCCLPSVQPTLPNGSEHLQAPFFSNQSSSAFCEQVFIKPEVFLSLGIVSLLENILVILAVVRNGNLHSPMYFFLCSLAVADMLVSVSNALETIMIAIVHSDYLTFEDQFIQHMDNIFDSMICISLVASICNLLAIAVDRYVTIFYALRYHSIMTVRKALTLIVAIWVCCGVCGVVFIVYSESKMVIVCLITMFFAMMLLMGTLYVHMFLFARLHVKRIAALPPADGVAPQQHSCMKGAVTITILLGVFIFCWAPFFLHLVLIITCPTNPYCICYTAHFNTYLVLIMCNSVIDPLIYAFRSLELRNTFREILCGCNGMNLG
T3 sequence (P35372 whole entry): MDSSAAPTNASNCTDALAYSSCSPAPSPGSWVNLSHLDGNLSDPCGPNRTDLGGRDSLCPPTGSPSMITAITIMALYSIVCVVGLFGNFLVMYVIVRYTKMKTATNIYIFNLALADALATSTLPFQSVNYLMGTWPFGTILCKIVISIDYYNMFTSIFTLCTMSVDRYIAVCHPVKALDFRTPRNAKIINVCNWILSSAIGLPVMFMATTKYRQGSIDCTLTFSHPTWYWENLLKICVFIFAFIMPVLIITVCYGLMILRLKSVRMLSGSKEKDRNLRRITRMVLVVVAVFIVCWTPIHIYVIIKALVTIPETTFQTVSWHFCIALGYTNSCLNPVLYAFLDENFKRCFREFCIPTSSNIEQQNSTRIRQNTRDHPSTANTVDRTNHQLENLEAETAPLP
T8 sequence (P41146 whole entry): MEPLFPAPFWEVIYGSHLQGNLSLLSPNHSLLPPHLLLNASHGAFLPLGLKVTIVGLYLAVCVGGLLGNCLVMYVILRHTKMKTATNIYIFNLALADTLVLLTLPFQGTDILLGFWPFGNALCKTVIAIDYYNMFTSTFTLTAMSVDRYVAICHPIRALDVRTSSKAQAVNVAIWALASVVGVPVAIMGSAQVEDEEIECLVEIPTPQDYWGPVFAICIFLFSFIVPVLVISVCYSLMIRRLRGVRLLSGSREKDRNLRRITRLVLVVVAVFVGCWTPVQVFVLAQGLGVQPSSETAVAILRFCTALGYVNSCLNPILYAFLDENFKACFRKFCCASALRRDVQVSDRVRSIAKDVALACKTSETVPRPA
T2 sequence (P41143 whole entry): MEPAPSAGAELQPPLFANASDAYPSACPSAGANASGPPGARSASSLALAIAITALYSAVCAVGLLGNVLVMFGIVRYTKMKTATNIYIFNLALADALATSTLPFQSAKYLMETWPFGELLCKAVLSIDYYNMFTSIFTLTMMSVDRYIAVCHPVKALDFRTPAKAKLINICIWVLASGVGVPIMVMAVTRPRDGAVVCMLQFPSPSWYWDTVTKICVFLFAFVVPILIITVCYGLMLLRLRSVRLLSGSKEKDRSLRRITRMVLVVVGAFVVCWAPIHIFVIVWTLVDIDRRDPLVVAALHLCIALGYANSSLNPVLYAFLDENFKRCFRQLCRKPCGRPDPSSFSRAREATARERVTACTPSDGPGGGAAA
T6 sequence (P33032 whole entry): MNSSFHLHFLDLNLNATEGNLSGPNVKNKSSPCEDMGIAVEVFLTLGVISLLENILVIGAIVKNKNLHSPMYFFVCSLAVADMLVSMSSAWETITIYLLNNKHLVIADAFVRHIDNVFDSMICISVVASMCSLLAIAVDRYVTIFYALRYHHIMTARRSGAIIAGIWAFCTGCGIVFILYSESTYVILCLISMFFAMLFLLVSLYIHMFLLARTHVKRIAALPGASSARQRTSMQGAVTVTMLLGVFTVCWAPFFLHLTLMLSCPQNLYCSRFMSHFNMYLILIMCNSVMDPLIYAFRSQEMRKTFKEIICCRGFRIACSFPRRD

Structure (SMILES) | A8: inhibition of radioligand binding [1] | A1: inhibition of radioligand binding [2] | A7: inhibition of radioligand binding [3] | A3: inhibition of radioligand binding [4] | A4: inhibition of radioligand binding [5] | A5: inhibition of radioligand binding [6] | A9: inhibition of radioligand binding [7] | A10: inhibition of radioligand binding [8] | A2: inhibition of radioligand binding [9] | A6: inhibition of radioligand binding [10] | A11: inhibition of radioligand binding [11] | further results
NCCCC(=O)NC1C(OCc2ccccc2)OC(COCc2ccccc2)C(O)C1OCc1ccccc1 (stereo not shown) [compound 379] |  |  |  |  |  |  |  |  |  |  |  | A8: inhibition of radioligand binding, human neurokinin (NK1) [1]: + (“+” indicates greater than 50% inhibition at 10 μM); A1: inhibition of radioligand binding, human δ-opioid (DOP) [2]: − (“−” indicates less than 50% inhibition at 10 μM); A7: inhibition of radioligand binding, human μ-opioid (MOP) [3]: − (“−” indicates less than 50% inhibition at 10 μM); A3: inhibition of radioligand binding, human melanocortin (MC3) [4]: − (“−” indicates less than 50% inhibition at 10 μM); A4: inhibition of radioligand binding, human melanocortin (MC4) [5]: − (“−” indicates less than 50% inhibition at 10 μM); A5: inhibition of radioligand binding, human melanocortin (MC5) [6]: + (“+” indicates greater than 50% inhibition at 10 μM); A9: inhibition of radioligand binding, human neuropeptide Y (NPY-Y1) [7]: − (“−” indicates less than 50% inhibition at 10 μM); A10: inhibition of radioligand binding, human opioid (ORL1) [8]: − (“−” indicates less than 50% inhibition at 10 μM); A2: inhibition of radioligand binding, human κ-opioid (KOP) [9]: − (“−” indicates less than 50% inhibition at 10 μM); A6: inhibition of radioligand binding, human melanin-concentrating hormone (MCH1) ([10]; [125I]-S36057): − (“−” indicates less than 50% inhibition at 10 μM); A11: inhibition of radioligand binding, mouse urotensin (mUR2) [11]: − (“−” indicates less than 50% inhibition at 10 μM)
NCCCC(=O)NC1C(OCc2ccccc2)OC(COCc2ccc(Cl)cc2)C(O)C1OCc1ccccc1 (stereo not shown) [compound 380] | + (“+” indicates greater than 50% inhibition at 10 μM) | − (“−” indicates less than 50% inhibition at 10 μM) | − (“−” indicates less than 50% inhibition at 10 μM) | − (“−” indicates less than 50% inhibition at 10 μM) | + (“+” indicates greater than 50% inhibition at 10 μM) | − (“−” indicates less than 50% inhibition at 10 μM) | − (“−” indicates less than 50% inhibition at 10 μM) | − (“−” indicates less than 50% inhibition at 10 μM) | − (“−” indicates less than 50% inhibition at 10 μM) | − (“−” indicates less than 50% inhibition at 10 μM) | − (“−” indicates less than 50% inhibition at 10 μM) | 
NCCC(=O)NC1C(OCc2ccc3ccccc3c2)OC(COCc2ccc3ccccc3c2)C(O)C1OCc1ccc(Cl)cc1 (stereo not shown) [compound 381] | + (“+” indicates greater than 50% inhibition at 10 μM) | − (“−” indicates less than 50% inhibition at 10 μM) | − (“−” indicates less than 50% inhibition at 10 μM) | + (“+” indicates greater than 50% inhibition at 10 μM) | + (“+” indicates greater than 50% inhibition at 10 μM) | + (“+” indicates greater than 50% inhibition at 10 μM) | − (“−” indicates less than 50% inhibition at 10 μM) | − (“−” indicates less than 50% inhibition at 10 μM) | − (“−” indicates less than 50% inhibition at 10 μM) | − (“−” indicates less than 50% inhibition at 10 μM) | − (“−” indicates less than 50% inhibition at 10 μM) | 
NCCC(=O)NC1C(OCc2ccc3ccccc3c2)OC(COCc2ccccc2)C(O)C1OCc1ccc(Cl)cc1 (stereo not shown) [compound 382] | + (“+” indicates greater than 50% inhibition at 10 μM) | − (“−” indicates less than 50% inhibition at 10 μM) | − (“−” indicates less than 50% inhibition at 10 μM) | − (“−” indicates less than 50% inhibition at 10 μM) | + (“+” indicates greater than 50% inhibition at 10 μM) | + (“+” indicates greater than 50% inhibition at 10 μM) | − (“−” indicates less than 50% inhibition at 10 μM) | − (“−” indicates less than 50% inhibition at 10 μM) | − (“−” indicates less than 50% inhibition at 10 μM) | − (“−” indicates less than 50% inhibition at 10 μM) | − (“−” indicates less than 50% inhibition at 10 μM) | 
NCCC(=O)NC1C(OCc2ccc3ccccc3c2)OC(COCc2ccc(Cl)cc2)C(O)C1OCc1ccc(Cl)cc1 (stereo not shown) [compound 383] | + (“+” indicates greater than 50% inhibition at 10 μM) | − (“−” indicates less than 50% inhibition at 10 μM) | − (“−” indicates less than 50% inhibition at 10 μM) | + (“+” indicates greater than 50% inhibition at 10 μM) | + (“+” indicates greater than 50% inhibition at 10 μM) | + (“+” indicates greater than 50% inhibition at 10 μM) | − (“−” indicates less than 50% inhibition at 10 μM) | − (“−” indicates less than 50% inhibition at 10 μM) | − (“−” indicates less than 50% inhibition at 10 μM) | − (“−” indicates less than 50% inhibition at 10 μM) | − (“−” indicates less than 50% inhibition at 10 μM) | 
